The numbers were not newly measured in patent US20070190095A1, “Coffee and its derivatives as an animal repellent composition and its use in a molluscicide bait” (priority 2006, published 2007), which cites them from elsewhere.

For this series, the system named is snails. As to conditions: 2% solution of caffeine in water sprayed on coconut husk-chip material in which orchids are grown.

Take `Cn1c(=O)c2c(ncn2C)n(C)c1=O` [caffeine, Caffeine]: the snails killed is reported as 95%.
